Results from PMC9564337, “Development of a Neurotensin-Derived ^68Ga-Labeled PET Ligand with High In Vivo Stability for Imaging of NTS1 Receptor-Expressing Tumors” (Cancers, 2022).
Marks after values point to notes of the source that are not given here.

How the values were obtained:
[1] = tested on: HT-29 tumor-bearing nude mice; assay: in vivo; settings: mouse
Method: (§1) 8–12 weeks old female NMRI nude (nu/nu) mice (body weight 22–32 g) (Charles River, Sulzfeld, Germany) were kept under specified pathogen free (SPF) conditions at 23 °C, 55% relative humidity and a 12 h light/dark cycle in the central animal facility of the University of Regensburg using type III cages from Tecniplast (Hohenpeißenberg, Germany). The animals took food (Ssniff, Soest, Germay) and autoclaved tap water ad libitum. For tumor cell implantation, the culture medium of HT-29 cells was removed, the cells were detached from the culture flask by incubation for 2 min in trypsin-EDTA and the suspension was centrifuged (5 min, rt, 164 g). The supernatant was removed, and the cell pellet was washed twice with sterile PBS or serum-free medium (5–6 mL). The cells were resuspended in sterile PBS to a final density of 1 × 10^7 cells/mL. Mice were injected subcutaneously into the right flank with the HT-29 cell suspension (100 µL). After 2–4 weeks, when the tumors had reached a size of 50–500 mm^3, animals were used for biodistribution and PET/computed tomography (CT) imaging studies (note: for PET/CT studies, the tumor size was at least 200 mm^3).
(§2) Aliquots of the tracer stock were diluted in PBS to give a volume of 200 µL. 80–100 µL (0.9–5.9 MBq) of this solution were injected into anesthetized HT-29 tumor-bearing nude mice via the tail vein. Animals were kept on a heating plate (set to 40 °C) or a pre-heated (ca. 45 °C) gel cushion and were killed by cardiac puncture 10 min, 25 min or 45 min p.i. immediately followed by taking blood, urine and tissue (i.e., tumor, kidney, liver, gall bladder, spleen, small intestine, heart, lung, brain, pancreas, femur and muscle) samples. Radioactivity measurement of the samples was performed with the Canberra Genie 2000 system described for the determination of the distribution coefficient logD7.4. Decay-corrected measured activities (cpm) were converted into activities (MBq) on the basis of an activity measurement with a ^68Ge-calibration standard source (Eckert&Ziegler, Berlin, Germany). Sample activities were converted to percentage of injected dose per gram tissue (%ID/g). Blocking experiments were performed by co-injection of the tracer with NTS1R ligand 48 (ca. 700 nmol per mouse). Mice were killed 45 min p.i. and analyzed as described above. The animals used for the 45-min biodistribution experiments were the same as used for the PET/CT imaging studies.

in vivo = settings: female, NMRI nude (nu/nu), mouse, total radioactivity; for tissue to tissue ratio at 0.75 h: iv, tumor-to-muscle ratio
Method: as §1, §2

physchem = assay type: physicochemical; settings: pH 7.4
Method: The distribution coefficients logD7.4 of the radiotracers [^68Ga]21, [^68Ga]33, [^68Ga]37 and [^68Ga]56 were determined by adding a solution of the tracer in PBS (100 μL, ca. 0.20–0.34 MBq) to a mixture of n-octanol (500 μL) and PBS (pH 7.4) (400 μL) in a 2-mL HPLC vial (Agilent, article number 5182-0714) with a screw cap equipped with a septum (Agilent, article number 5182-0717). After vortexing the mixture for 2 min, two 100 μL aliquots of the upper phase (n-octanol) were taken. To obtain a sample of the lower phase (PBS), the HPLC vial was held upside down and approximately 100–150 µL of the aqueous phase were removed using a syringe equipped with a canula and collected in a reaction vessel. Two 10 µL aliquots of the aqueous phase were subjected to measurement. The activity of the aliquots was measured with a Canberra Genie 2000 system (Canberra, Rüsselsheim, Germany) using the Gamma Acquisition & Analysis Software Genie 2000 3.4.1. Experiments were performed in triplicate. The decay-corrected counts per minute (cpm) values were averaged (n = 3) and transformed to a distribution coefficient logD7.4 according to logD7.4 = log(Aoctanol/Aaqueous), where Aoctanol is the mean of the decay-corrected cpm values obtained for samples of the n-octanol phase, and Aaqueous is the mean of the decay-corrected cpm values obtained for samples of the aqueous phase.

[2] = cited from earlier work
[3] = female, NMRI nude (nu/nu), 0.75 h
[4] = Uptake (%ID/g) gall bladder (bile)

Structure (SMILES): CC[C@H](C)[C@H](NC(=O)[C@@H](NC(=O)[C@@H]1CCCN1C(=O)[C@H](CCCNC(=N)N)NC(=O)[C@H](CCCNC(N)=NC(=O)NCCCCNC(=O)CN1CCN(CC(=O)O)CCN(CC(=O)O)CCN(CC(=O)O)CC1)NC)C(C)(C)c1ccc(O)cc1)C(=O)N[C@@H](CC(C)C)C(=O)O [[^68Ga]56, metal not drawn]
- Uptake (%ID/g) blood [1, 3]: 1.4 ± 1.0 %ID/g
- Uptake (%ID/g) brain [1, 3]: 0.10 ± 0.074 %ID/g
- Uptake (%ID/g) femur [1, 3]: 0.65 ± 0.43 %ID/g
- Uptake (%ID/g) heart [1, 3]: 0.60 ± 0.44 %ID/g
- Uptake (%ID/g) kidney [1, 3]: 53 ± 27 %ID/g
- Uptake (%ID/g) muscle [1, 3]: 0.68 ± 0.61 %ID/g
- Uptake (%ID/g) pancreas [1, 3]: 0.51 ± 0.37 %ID/g
- tissue uptake at 10 min (in vivo; Uptake (%ID/g) blood): 3.1 ± 0.34 %ID/g
- tissue uptake at 25 min (in vivo; Uptake (%ID/g) blood): 2.9 ± 1.3 %ID/g
- tissue uptake at 0.75 h (in vivo; Uptake (%ID/g) blood): 1.3 ± 0.33 %ID/g
- tissue uptake at 10 min (in vivo; Uptake (%ID/g) brain): 0.079 ± 0.017 %ID/g
- tissue uptake at 25 min (in vivo; Uptake (%ID/g) brain): 0.13 ± 0.11 %ID/g
- tissue uptake at 0.75 h (in vivo; Uptake (%ID/g) brain): 0.061 ± 0.049 %ID/g
- tissue uptake at 10 min (in vivo; Uptake (%ID/g) femur): 0.95 ± 0.25 %ID/g
- tissue uptake at 25 min (in vivo; Uptake (%ID/g) femur): 0.78 ± 0.27 %ID/g
- tissue uptake at 0.75 h (in vivo; Uptake (%ID/g) femur): 0.73 ± 0.29 %ID/g
- tissue uptake at 10 min (in vivo; [4]): 1.1 ± 0.71 %ID/g
- tissue uptake at 25 min (in vivo; [4]): 1.9 ± 0.79 %ID/g
- tissue uptake at 10 min (in vivo; Uptake (%ID/g) heart): 1.2 ± 0.1 %ID/g
- tissue uptake at 25 min (in vivo; Uptake (%ID/g) heart): 1.3 ± 0.49 %ID/g
- tissue uptake at 0.75 h (in vivo; Uptake (%ID/g) heart): 0.72 ± 0.36 %ID/g
- tissue uptake at 10 min (in vivo; Uptake (%ID/g) intestine): 1.8 ± 0.22 %ID/g
- tissue uptake at 25 min (in vivo; Uptake (%ID/g) intestine): 2.4 ± 0.68 %ID/g
- tissue uptake at 10 min (in vivo; Uptake (%ID/g) kidney): 47 ± 3.4 %ID/g
- tissue uptake at 25 min (in vivo; Uptake (%ID/g) kidney): 47 ± 7 %ID/g
- tissue uptake at 0.75 h (in vivo; Uptake (%ID/g) kidney): 55 ± 28 %ID/g
- tissue uptake at 10 min (in vivo; Uptake (%ID/g) liver): 7.2 ± 0.83 %ID/g
- tissue uptake at 25 min (in vivo; Uptake (%ID/g) liver): 5.7 ± 1.6 %ID/g
- tissue uptake at 10 min (in vivo; Uptake (%ID/g) lung): 2.4 ± 0.3 %ID/g
- tissue uptake at 25 min (in vivo; Uptake (%ID/g) lung): 2.8 ± 1.5 %ID/g
- tissue uptake at 0.75 h (in vivo; Uptake (%ID/g) lung): 1.2 ± 0.34 %ID/g
- tissue uptake at 10 min (in vivo; Uptake (%ID/g) muscle): 1.1 ± 0.18 %ID/g
- tissue uptake at 25 min (in vivo; Uptake (%ID/g) muscle): 0.57 ± 0.23 %ID/g
- tissue uptake at 0.75 h (in vivo; Uptake (%ID/g) muscle): 0.55 ± 0.23 %ID/g
- tissue uptake at 10 min (in vivo; Uptake (%ID/g) pancreas): 1.3 ± 0.83 %ID/g
- tissue uptake at 25 min (in vivo; Uptake (%ID/g) pancreas): 1.1 ± 1.1 %ID/g
- tissue uptake at 0.75 h (in vivo; Uptake (%ID/g) pancreas): 0.9 ± 0.57 %ID/g
- tissue uptake at 10 min (in vivo; Uptake (%ID/g) spleen): 2.5 ± 0.25 %ID/g
- tissue uptake at 25 min (in vivo; Uptake (%ID/g) spleen): 2.6 ± 0.6 %ID/g
- tissue uptake at 10 min (in vivo; Uptake (%ID/g) tumor): 3.6 ± 0.2 %ID/g
- tissue uptake at 25 min (in vivo; Uptake (%ID/g) tumor): 7.3 ± 1.8 %ID/g
- logD (physchem): -3.06

Structure (SMILES): CC[C@H](C)[C@H](NC(=O)[C@H](Cc1ccc(O)cc1)NC(=O)[C@@H]1CCCN1C(=O)[C@H](CCCNC(=N)N)NC(=O)[C@@H](N)CCCNC(=N)N)C(=O)N[C@@H](CC(C)C)C(=O)O [Compound 1, Arg^8-Arg^9-Pro^10-Tyr^11-Ile^12-Leu^13]
- plasma half-life [2]: only a few minutes
- % Intact Peptide in Plasma after 10 min ([2]; human plasma, 37 °C, 10 min, ref Schindler et al. [40]): 23 ^d %
- % Intact Peptide in Plasma after 1 h ([2]; human plasma, 37 °C, 1 h, ref Schindler et al. [40]): <1 ^d %
- % Intact Peptide in Plasma after 24 h ([2]; human plasma, 37 °C, 24 h, ref Schindler et al. [40]): <1 ^d %
- % Intact Peptide in Plasma after 48 h ([2]; human plasma, 37 °C, 48 h, ref Schindler et al. [40]): <1 ^d %

Structure (SMILES): CN[C@@H](CCCNC(N)=NC(=O)NCCCCNC(=O)CN1CCN(CC(=O)O)CCN(CC(=O)O)CCN(CC(=O)O)CC1)C(=O)N[C@@H](CCCNC(=N)N)C(=O)N1CCC[C@H]1C(=O)N[C@@H](Cc1ccc(O)cc1)C(=O)N[C@H](C(=O)N[C@@H](CC(C)C)C(=O)O)C(C)(C)C [[^68Ga]21, metal not drawn]
- tumor-to-muscle ratio [1]: 9.5
- tissue to tissue ratio at 0.75 h (in vivo): 9.5 ± 3.7
- tissue uptake at 0.75 h (in vivo; Uptake (%ID/g) blood): 0.63 ± 0.2 %ID/g
- tissue uptake at 0.75 h (in vivo; [4]): 0.55 ± 0.29 %ID/g
- tissue uptake at 0.75 h (in vivo; Uptake (%ID/g) kidney): 6 ± 1.9 %ID/g
- tissue uptake at 0.75 h (in vivo; Uptake (%ID/g) liver): 0.59 ± 0.17 %ID/g
- tissue uptake at 0.75 h (in vivo; Uptake (%ID/g) muscle): 0.21 ± 0.062 %ID/g
- tissue uptake at 0.75 h (in vivo; Uptake (%ID/g) tumor): 1.9 ± 0.7 %ID/g
- logD (physchem): -3.87

Structure (SMILES): CN[C@@H](CCCNC(N)=NC(=O)NCCOCCOCCNC(=O)[C@@H](Cc1ccc(-c2ccc(F)cc2)cc1)NC(=O)CN1CCN(CC(=O)O)CCN(CC(=O)O)CCN(CC(=O)O)CC1)C(=O)N[C@@H](CCCNC(=N)N)C(=O)N1CCC[C@H]1C(=O)N[C@@H](Cc1ccc(O)cc1)C(=O)N[C@H](C(=O)N[C@@H](CC(C)C)C(=O)O)C(C)(C)C [[^68Ga]37, metal not drawn]
- tumor-to-muscle ratio [1]: 3.4
- tissue to tissue ratio at 0.75 h (in vivo): 3.4 ± 0.71
- tissue uptake at 0.75 h (in vivo; [4]): 1.9 ± 0.34 %ID/g
- tissue uptake at 0.75 h (in vivo; Uptake (%ID/g) kidney): 7.6 ± 0.39 %ID/g
- tissue uptake at 0.75 h (in vivo; Uptake (%ID/g) liver): 4.1 ± 0.79 %ID/g
- tissue uptake at 0.75 h (in vivo; Uptake (%ID/g) muscle): 0.5 ± 0.18 %ID/g
- tissue uptake at 0.75 h (in vivo; Uptake (%ID/g) tumor): 1.6 ± 0.19 %ID/g
- logD (physchem): -2.59

Structure (SMILES): CN[C@@H](CCCNC(N)=NC(=O)NCCOCCOCCNC(=O)[C@@H](Cc1ccc(-c2ccc(F)cc2)cc1)NC(=O)CCCCCNC(=O)CN1CCN(CC(=O)O)CCN(CC(=O)O)CCN(CC(=O)O)CC1)C(=O)N[C@@H](CCCNC(=N)N)C(=O)N1CCC[C@H]1C(=O)N[C@@H](Cc1ccc(O)cc1)C(=O)N[C@H](C(=O)N[C@@H](CC(C)C)C(=O)O)C(C)(C)C [[^68Ga]33, metal not drawn]
- tumor-to-muscle ratio [1]: 4.1
- tissue to tissue ratio at 0.75 h (in vivo): 4.1 ± 1.7
- tissue uptake at 0.75 h (in vivo; Uptake (%ID/g) blood): 1.3 ± 0.29 %ID/g
- tissue uptake at 0.75 h (in vivo; [4]): 2 ± 0.14 %ID/g
- tissue uptake at 0.75 h (in vivo; Uptake (%ID/g) kidney): 10 ± 0.96 %ID/g
- tissue uptake at 0.75 h (in vivo; Uptake (%ID/g) liver): 16 ± 2.2 %ID/g
- tissue uptake at 0.75 h (in vivo; Uptake (%ID/g) muscle): 0.41 ± 0.17 %ID/g
- tissue uptake at 0.75 h (in vivo; Uptake (%ID/g) tumor): 1.5 ± 0.22 %ID/g
- logD (physchem): -2.48
